Test results as given in patent US9771369B2, “Compounds and methods for kinase modulation, and indications therefor” (Plexxikon Inc., priority 2014, dated 2017).

target: c-Kit kinase (Homo sapiens (Human), UniProt P10721); test: c-Kit biochemical assay (AlphaScreen kinase activity)
Procedure, shortened: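 AlphaScreen: c-Kit phosphorylates biotin-(E4Y)3 (100 nM) at 10 μM ATP, pH 7.2 HEPES buffer with Mg/Mn, 5% DMSO, 1 h room temperature; streptavidin donor and PY30 acceptor beads detect product. Second format: 100 μM ATP, 30 nM biotin-(E4Y)10, pH 7.5. IC50 from 8-point 1:3 dilution curves.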

Chain of c-Kit kinase (P10721 26-976): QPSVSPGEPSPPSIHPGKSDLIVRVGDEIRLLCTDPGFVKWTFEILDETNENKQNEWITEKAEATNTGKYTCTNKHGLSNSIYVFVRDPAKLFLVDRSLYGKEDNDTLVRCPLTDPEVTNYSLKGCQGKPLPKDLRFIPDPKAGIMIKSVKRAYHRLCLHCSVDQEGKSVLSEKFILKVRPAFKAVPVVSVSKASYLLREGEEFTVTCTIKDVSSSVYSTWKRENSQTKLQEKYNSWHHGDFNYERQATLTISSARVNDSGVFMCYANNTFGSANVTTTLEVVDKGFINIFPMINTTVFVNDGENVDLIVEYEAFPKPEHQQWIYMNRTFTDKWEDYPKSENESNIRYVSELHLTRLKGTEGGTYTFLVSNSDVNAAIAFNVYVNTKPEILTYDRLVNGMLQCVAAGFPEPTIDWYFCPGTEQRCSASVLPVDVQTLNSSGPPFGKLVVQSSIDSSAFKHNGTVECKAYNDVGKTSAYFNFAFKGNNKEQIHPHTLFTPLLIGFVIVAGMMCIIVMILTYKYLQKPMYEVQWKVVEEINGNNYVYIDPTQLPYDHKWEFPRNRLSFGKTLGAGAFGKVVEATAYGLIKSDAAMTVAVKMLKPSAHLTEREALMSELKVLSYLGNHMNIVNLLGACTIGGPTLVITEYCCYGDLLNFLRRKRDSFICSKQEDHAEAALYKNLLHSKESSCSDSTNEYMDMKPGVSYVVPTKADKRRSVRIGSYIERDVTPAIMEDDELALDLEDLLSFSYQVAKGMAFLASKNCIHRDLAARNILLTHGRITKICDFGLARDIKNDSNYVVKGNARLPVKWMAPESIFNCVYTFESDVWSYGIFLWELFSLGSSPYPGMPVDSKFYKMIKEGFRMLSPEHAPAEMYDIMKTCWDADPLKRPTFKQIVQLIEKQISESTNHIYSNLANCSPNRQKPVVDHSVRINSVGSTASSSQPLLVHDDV

SMILES | IC50 [µM]
Cc1nc(C2CCN(c3ncnc4[nH]c(-c5ccc(F)cc5)cc34)CC2)[nH]c1-c1ccccc1 [P-3002, 6-(4-fluorophenyl)-4-[4-(4-methyl-5-phenyl-1H-imidazol-2-yl)-1-piperidyl]-7H-pyrrolo[2,3-d]pyrimidine] | 0.0001 to 1
COc1cc(-c2cc3c(N4CCC(c5nc(C)c(-c6ccccc6)[nH]5)CC4)ncnc3[nH]2)ccn1 [P-3003, 6-(2-methoxy-4-pyridyl)-4-[4-(4-methyl-5-phenyl-1H-imidazol-2-yl)-1-piperidyl]-7H-pyrrolo[2,3-d]pyrimidine] | 0.0001 to 1
Cc1cc2c(N3CCC(c4nc(C)c(-c5ccccc5)[nH]4)CC3)ncnc2[nH]1 [P-3004, 6-methyl-4-[4-(4-methyl-5-phenyl-1H-imidazol-2-yl)-1-piperidyl]-7H-pyrrolo[2,3-d]pyrimidine] | 10 to 300
Cc1cc2c(N3CCC(c4nc(C)c(-c5ccc(F)cc5)[nH]4)CC3)ncnc2[nH]1 [P-3005, 4-[4-[5-(4-fluorophenyl)-4-methyl-1H-imidazol-2-yl]-1-piperidyl]-6-methyl-7H-pyrrolo[2,3-d]pyrimidine] | 1 to 10
COc1cc(-c2cc3c(N4CCC(c5nc(C)c(-c6cccc(F)c6)[nH]5)CC4)ncnc3[nH]2)ccn1 [P-3019, 4-[4-[5-(3-fluorophenyl)-4-methyl-1H-imidazol-2-yl]-1-piperidyl]-6-(2-methoxy-4-pyridyl)-7H-pyrrolo[2,3-d]pyrimidine] | 10 to 300
Cc1nc(C2CCN(c3ncnc4[nH]c(-c5ccc(C#N)cc5)cc34)CC2)[nH]c1-c1ccc(F)cc1 [P-3020, 4-[4-[4-[5-(4-fluorophenyl)-4-methyl-1H-imidazol-2-yl]-1-piperidyl]-7H-pyrrolo[2,3-d]pyrimidin-6-yl]benzonitrile] | 1 to 10
COc1cccc(-c2[nH]c(C3CCN(c4ncnc5[nH]c(-c6ccc(C#N)cc6)cc45)CC3)nc2C)c1 [P-3021, 4-[4-[4-[5-(3-methoxyphenyl)-4-methyl-1H-imidazol-2-yl]-1-piperidyl]-7H-pyrrolo[2,3-d]pyrimidin-6-yl]benzonitrile] | 0.0001 to 1
COc1cccc(-c2[nH]c(C3CCN(c4ncnc5[nH]c(-c6ccnc(OC)c6)cc45)CC3)nc2C)c1 [P-3022, 4-[4-[5-(3-methoxyphenyl)-4-methyl-1H-imidazol-2-yl]-1-piperidyl]-6-(2-methoxy-4-pyridyl)-7H-pyrrolo[2,3-d]pyrimidine] | 1 to 10
COc1cc(-c2cc3c(N4CCC(c5nc(C)c(-c6ccc(OC)c(C)c6)[nH]5)CC4)ncnc3[nH]2)ccn1 [P-3023, 4-[4-[5-(4-methoxy-3-methyl-phenyl)-4-methyl-1H-imidazol-2-yl]-1-piperidyl]-6-(2-methoxy-4-pyridyl)-7H-pyrrolo[2,3-d]pyrimidine] | 0.0001 to 1
CCOc1cccc(-c2[nH]c(C3CCN(c4ncnc5[nH]c(-c6ccc(F)cc6)cc45)CC3)nc2C)c1 [P-3024, 4-[4-[5-(3-ethoxyphenyl)-4-methyl-1H-imidazol-2-yl]-1-piperidyl]-6-(4-fluorophenyl)-7H-pyrrolo[2,3-d]pyrimidine] | 1 to 10
CCOc1cccc(-c2[nH]c(C3CCN(c4ncnc5[nH]c(-c6ccc(C#N)cc6)cc45)CC3)nc2C)c1 [P-3025, 4-[4-[4-[5-(3-ethoxyphenyl)-4-methyl-1H-imidazol-2-yl]-1-piperidyl]-7H-pyrrolo[2,3-d]pyrimidin-6-yl]benzonitrile] | 1 to 10
CCOc1ccc(-c2[nH]c(C3CCN(c4ncnc5[nH]c(-c6ccc(F)cc6)cc45)CC3)nc2C)cc1 [P-3026, 4-[4-[5-(4-ethoxyphenyl)-4-methyl-1H-imidazol-2-yl]-1-piperidyl]-6-(4-fluorophenyl)-7H-pyrrolo[2,3-d]pyrimidine] | 1 to 10
CCOc1ccc(-c2[nH]c(C3CCN(c4ncnc5[nH]c(-c6ccc(C#N)cc6)cc45)CC3)nc2C)cc1 [P-3027, 4-[4-[4-[5-(4-ethoxyphenyl)-4-methyl-1H-imidazol-2-yl]-1-piperidyl]-7H-pyrrolo[2,3-d]pyrimidin-6-yl]benzonitrile] | 1 to 10
